Assay results from paper PMC10997755, “Discovery of a small-molecule inhibitor that traps Polθ on DNA and synergizes with PARP inhibitors” (Nature Communications, 2024).
“And” between values parts separate entries of the source, which are not always exact repeats. Identical values can stand only once.

How the values were obtained:
Fl-Polθ:DNA/DNA complex = target: T1, Fl-Polθ:DNA/DNA complex (Homo sapiens, UniProt O75417); test: EcoRI endonuclease protection assay; type: biochemical;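 as to i+1 (%) (15 nt), replicates #1-#3: i+1 is one-nucleotide extended DNA within post-catalytic complexes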
T1 construct: recombinant human full-length Polθ (Fl-Polθ); made in house
Procedure: EcoRI and KpnI endonucleases assay: 25 nM 5’-^32P radiolabeled primer-template DNA Sc15-EcoRI (5’-^32P LM3-EcoRI/LM4-EcoRI) or Sc19-KpnI (5’-^32P LM11-Kpn/LM12-Kpn) in reaction buffer (25 mM Tris-HCl pH 7.5, 10 mM MgCl2, 10% glycerol, 0.1 mg/mL BSA, 0,01% igepal, 1 mM DTT) were incubated in the presence or in the absence of 50 nM Polθ-pol, 100 μM ddCTP, and 10 μM inhibitors, as indicated, for 5 min at room temperature. Next, 0.08 U/μL EcoRI or KpnI together with 500 nM “trapping” DNA Sc14 (RP559/RP702) were added and incubated for further 0–40 min at 30 °C as indicated. 10 nM PolθΔcen and FL-Polθ and 25 nM Sc15-EcoRI and Sc19-Kpn were probed with 0.04 U/μL EcoRI or KpnI (both from New England Biolabs) using the same conditions. Reactions were stopped by addition of formamide loading buffer with 50 mM EDTA, resolved in denaturing 20% urea PAAG and analyzed using Typhoon PhosphorImager (GE Amersham). Quantification was done in ImageQuant TL software. All quantified experiments were performed in triplicates and plotted as mean with ± s.d using GraphPad Prism 9 software.

Polθ-pol on DNA/RNA = target: T2, Polθ-pol on DNA/RNA (Homo sapiens, UniProt O75417); test: Relative rate of ddCMP addition on DNA/RNA; type: biochemical; details: for Average % Extension (Single nt) / % Extension (Single nt) / % Extension of Control: RNA template; for Average % Extension (Single nt) / % Extension (Single nt): 2uM RTX-161; for Average % Extension (Single nt): average of 3 trials; for % Extension (Single nt) / % Extension of Control: single trials 1-3; for % Extension of Control: 2uM RTX-161 relative to DMSO
T2 construct: purified recombinant human Polθ-pol (comprising amino acid residues 1792–2590); made in house
T2 sequence (O75417 1792-2590): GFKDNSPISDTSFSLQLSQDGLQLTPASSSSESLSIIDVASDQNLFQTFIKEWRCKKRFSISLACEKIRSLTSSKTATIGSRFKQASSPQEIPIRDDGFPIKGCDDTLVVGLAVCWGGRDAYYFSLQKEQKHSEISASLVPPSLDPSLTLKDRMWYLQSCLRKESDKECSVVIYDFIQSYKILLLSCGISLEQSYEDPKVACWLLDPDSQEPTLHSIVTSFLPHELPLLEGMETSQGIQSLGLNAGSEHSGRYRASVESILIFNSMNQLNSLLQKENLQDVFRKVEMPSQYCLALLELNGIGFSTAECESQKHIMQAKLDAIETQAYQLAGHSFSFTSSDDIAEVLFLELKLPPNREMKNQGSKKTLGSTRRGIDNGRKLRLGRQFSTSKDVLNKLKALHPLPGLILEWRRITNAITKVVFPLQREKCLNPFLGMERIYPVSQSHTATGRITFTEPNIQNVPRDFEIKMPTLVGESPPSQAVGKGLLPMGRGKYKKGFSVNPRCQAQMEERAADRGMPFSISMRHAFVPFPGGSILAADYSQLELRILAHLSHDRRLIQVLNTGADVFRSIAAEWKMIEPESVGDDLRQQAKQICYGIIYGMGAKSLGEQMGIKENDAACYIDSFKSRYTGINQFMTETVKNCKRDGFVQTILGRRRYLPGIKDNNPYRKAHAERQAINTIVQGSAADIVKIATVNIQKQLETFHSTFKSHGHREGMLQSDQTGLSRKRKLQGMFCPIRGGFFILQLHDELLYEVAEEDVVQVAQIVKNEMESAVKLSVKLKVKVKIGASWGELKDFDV
Procedure: Relative rate of Polθ-pol dAMP addition. The relative rates of dAMP incorporation by Polq-pol in the presence of DMSO or MC160385 with various concentrations of dATP were measured using the following primer extension assay in vitro. 2 nM or Polθ-pol was incubated with 5’ ^32P-γ-ATP labeled 100 nM primer-template (RP469D/RP486) in 1X buffer (25 mM TrisHCl pH 7.8, 0.01% NP40, 10% glycerol, 1 mM DTT, 10 mM MgCl2, 0.1 mg/ml BSA) at room temp. 2.5% DMSO, 7.5 nM or 12 nM of MC160385 was added. Reactions were than initiated by the addition of 20, 50, 100, 200, or 300 μM dATP at room temp. Aliquots of the reactions were removed and terminated by the addition of 50 mM EDTA at 3, 3.5, 4 and 5 min after the reaction was initiated. Radio-labeled DNA was then resolved via denaturing 20% PAGE and visualized by Typhoon PhosphorImager (GE Amersham). Rates of dAMP incorporation were calculated from % extension of the prime-template which was determined using ImageJ software. Relative rate of ddCMP addition on DNA/DNA and DNA/RNA. 25 nM nucleic acid DNA/DNA or DNA/RNA primer-template (RP559/RP702 or RP559/RP702R) was mixed with 1X reaction buffer (20 mM TrisHCl pH 7.5, 0.01% NP-40, 0.5 mM DTT, 10% glycerol, 0.1 mg/ml BSA, 10 mM MgCl2) in the presence of 250 μM ddCTP at room temp. Next, 2 μM RTx-161 or 2.5% DMSO was added. Reactions were initiated by the addition of 10 nM Polθ-pol. Reaction aliquots were removed and terminated by the addition of 50 mM EDTA at the indicated time points. Radio-labeled DNA was then resolved via denaturing 20% PAGE and visualized by Typhoon PhosphorImager. Percent primer extension by single ddCMP addition at each time point was calculated from % extension of the prime-template which was determined using ImageJ software.

T1 sequence (O75417 whole entry, one chain of several): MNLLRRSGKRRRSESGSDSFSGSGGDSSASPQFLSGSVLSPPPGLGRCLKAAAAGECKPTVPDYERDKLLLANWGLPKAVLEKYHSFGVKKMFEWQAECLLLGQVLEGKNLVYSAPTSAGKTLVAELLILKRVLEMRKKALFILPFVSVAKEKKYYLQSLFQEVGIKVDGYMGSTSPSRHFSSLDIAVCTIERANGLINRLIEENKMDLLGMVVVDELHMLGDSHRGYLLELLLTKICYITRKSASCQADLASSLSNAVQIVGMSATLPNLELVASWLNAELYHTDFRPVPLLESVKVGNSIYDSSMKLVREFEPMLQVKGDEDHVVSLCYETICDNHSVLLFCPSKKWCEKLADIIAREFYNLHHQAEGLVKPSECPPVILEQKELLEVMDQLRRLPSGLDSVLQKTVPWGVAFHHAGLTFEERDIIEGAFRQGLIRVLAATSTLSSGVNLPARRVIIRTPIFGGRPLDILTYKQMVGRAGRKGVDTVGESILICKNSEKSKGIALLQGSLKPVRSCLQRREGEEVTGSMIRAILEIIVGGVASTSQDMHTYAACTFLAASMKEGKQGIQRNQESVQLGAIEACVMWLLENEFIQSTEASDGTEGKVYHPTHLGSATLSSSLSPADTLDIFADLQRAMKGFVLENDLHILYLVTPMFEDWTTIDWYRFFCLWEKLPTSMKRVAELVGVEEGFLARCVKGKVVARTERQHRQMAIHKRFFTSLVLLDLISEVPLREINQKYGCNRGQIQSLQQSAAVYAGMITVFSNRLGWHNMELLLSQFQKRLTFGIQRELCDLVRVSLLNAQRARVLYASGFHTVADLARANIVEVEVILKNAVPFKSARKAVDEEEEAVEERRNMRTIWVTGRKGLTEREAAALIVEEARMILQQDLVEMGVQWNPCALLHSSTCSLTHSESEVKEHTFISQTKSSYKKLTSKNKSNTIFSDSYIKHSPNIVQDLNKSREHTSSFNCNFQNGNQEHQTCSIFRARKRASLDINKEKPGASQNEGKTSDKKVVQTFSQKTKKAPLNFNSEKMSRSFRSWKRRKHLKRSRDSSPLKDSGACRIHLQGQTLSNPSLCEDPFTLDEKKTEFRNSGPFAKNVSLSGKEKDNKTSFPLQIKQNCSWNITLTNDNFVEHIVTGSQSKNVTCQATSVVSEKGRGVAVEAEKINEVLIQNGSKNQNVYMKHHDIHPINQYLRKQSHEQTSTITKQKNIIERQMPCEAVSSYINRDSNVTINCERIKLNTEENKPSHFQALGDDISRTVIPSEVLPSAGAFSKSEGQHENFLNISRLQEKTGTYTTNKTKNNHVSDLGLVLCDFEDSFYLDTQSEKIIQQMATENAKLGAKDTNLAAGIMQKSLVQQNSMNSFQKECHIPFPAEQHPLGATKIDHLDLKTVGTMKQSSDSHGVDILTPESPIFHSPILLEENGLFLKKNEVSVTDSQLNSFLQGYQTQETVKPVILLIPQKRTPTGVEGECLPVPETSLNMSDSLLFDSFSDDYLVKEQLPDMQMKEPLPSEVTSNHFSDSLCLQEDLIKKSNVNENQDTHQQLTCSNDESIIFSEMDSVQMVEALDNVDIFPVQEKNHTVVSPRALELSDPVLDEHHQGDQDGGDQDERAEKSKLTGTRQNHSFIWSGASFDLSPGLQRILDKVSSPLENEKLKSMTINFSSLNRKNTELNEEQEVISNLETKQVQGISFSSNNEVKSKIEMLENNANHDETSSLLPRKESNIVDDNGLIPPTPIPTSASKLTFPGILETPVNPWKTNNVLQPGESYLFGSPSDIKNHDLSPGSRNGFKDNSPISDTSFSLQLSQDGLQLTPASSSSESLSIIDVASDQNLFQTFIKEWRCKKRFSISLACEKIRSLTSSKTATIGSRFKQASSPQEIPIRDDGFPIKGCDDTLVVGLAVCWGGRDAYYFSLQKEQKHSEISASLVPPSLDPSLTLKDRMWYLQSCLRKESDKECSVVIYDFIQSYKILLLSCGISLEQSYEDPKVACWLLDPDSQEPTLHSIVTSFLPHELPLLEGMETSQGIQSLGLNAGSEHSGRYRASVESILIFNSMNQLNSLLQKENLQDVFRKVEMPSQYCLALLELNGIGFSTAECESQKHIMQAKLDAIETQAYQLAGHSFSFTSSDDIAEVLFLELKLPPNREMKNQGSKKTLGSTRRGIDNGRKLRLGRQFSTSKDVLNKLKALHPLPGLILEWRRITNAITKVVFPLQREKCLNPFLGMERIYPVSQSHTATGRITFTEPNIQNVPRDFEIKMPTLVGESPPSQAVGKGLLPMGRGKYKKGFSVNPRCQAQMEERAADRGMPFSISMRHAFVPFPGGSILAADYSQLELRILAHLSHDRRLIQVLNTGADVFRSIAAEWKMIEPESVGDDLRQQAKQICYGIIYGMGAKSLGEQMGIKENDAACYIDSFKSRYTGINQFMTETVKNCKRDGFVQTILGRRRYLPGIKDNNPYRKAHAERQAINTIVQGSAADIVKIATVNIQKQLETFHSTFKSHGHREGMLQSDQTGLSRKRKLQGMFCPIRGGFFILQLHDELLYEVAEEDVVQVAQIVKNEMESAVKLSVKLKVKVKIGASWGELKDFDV

## CN1CCN(c2cc(C(F)(F)F)cc(C(F)(F)F)c2OC(=O)N(C)c2ccc(F)cc2)C1=O [RTx-152]
Fl-Polθ:DNA/DNA complex; Eco+FL+ddC+RTx152, 2.5min
  EcoRI cleavage %, ave: 15.4%
  EcoRI cleavage %, replicates #1-#3: 16.1% and 15.5% and 14.7%
Fl-Polθ:DNA/DNA complex; Eco+FL+ddC+RTx152, 5min
  EcoRI cleavage %, ave: 27.7%
  EcoRI cleavage %, replicates #1-#3: 28.7% and 27.4% and 27.0%
Fl-Polθ:DNA/DNA complex; Eco+FL+ddC+RTx152, 10min
  EcoRI cleavage %, ave: 38.7%
  EcoRI cleavage %, replicates #1-#3: 39.6% and 39.0% and 37.5%
Fl-Polθ:DNA/DNA complex; FL+ddC+152, 2.5min
  i (%) (14 nt), replicates #1-#3: 45.9% and 45.3% and 45.1%
  i (%), normalized to 100%, ave(%): 100.0%
  i+1 (%) (15 nt), replicates #1-#3: 24.5% and 25.2% and 24.4%
  i+1 (%) normalized to 100%, ave(%): 100.0%
Fl-Polθ:DNA/DNA complex; FL+ddC+152, 5min
  i (%) (14 nt), replicates #1-#3: 32.7% and 32.3% and 32.8%
  i (%), normalized to 100%, ave(%): 71.7%
  i+1 (%) (15 nt), replicates #1-#3: 24.7% and 27.0% and 24.6%
  i+1 (%) normalized to 100%, ave(%): 103.0%
Fl-Polθ:DNA/DNA complex; FL+ddC+152, 10min
  i (%) (14 nt), replicates #1-#3: 19.6% and 20.0% and 17.7%
  i (%), normalized to 100%, ave(%): 42.0%
  i+1 (%) (15 nt), replicates #1-#3: 27.5% and 27.2% and 25.6%
  i+1 (%) normalized to 100%, ave(%): 108.3%
Fl-Polθ:DNA/DNA complex; Fl-Polθ
  post-catalytic complexes (i + 1), EcoRI cleavage: fully resistant to EcoRI cleavage

## CN(C(=O)Oc1c(N2CCN(CCO)C2=O)cc(C(F)(F)F)cc1C(F)(F)F)c1ccc(F)cc1 [RTx-161]
Polθ-pol on DNA/RNA; 2 μM RTx-161, open conformation
  inhibition of single nucleotide incorporation on DNA/RNA: failed to significantly inhibit
Polθ-pol on DNA/RNA; Time 0
  Average % Extension (Single nt): 0.00%
  % Extension (Single nt): 0.00%
Polθ-pol on DNA/RNA; Time 5
  Average % Extension (Single nt): 4.59%
  % Extension (Single nt): 2.50% and 5.50% and 5.76%
  % Extension of Control: 47.30% and 65.75% and 74.39%
Polθ-pol on DNA/RNA; Time 10
  Average % Extension (Single nt): 7.95%
  % Extension (Single nt): 4.80% and 9.47% and 9.59%
  % Extension of Control: 39.83% and 67.79% and 72.59%
Polθ-pol on DNA/RNA; Time 20
  Average % Extension (Single nt): 16.13%
  % Extension (Single nt): 15.85% and 16.30% and 16.24%
  % Extension of Control: 72.60% and 71.13% and 71.98%
Polθ-pol on DNA/RNA; Time 40
  Average % Extension (Single nt): 27.98%
  % Extension (Single nt): 29.57% and 26.15% and 28.23%
  % Extension of Control: 79.52% and 73.56% and 82.47%
